Consider four molecules from patent publication US20240197891A1, “PHARMACEUTICAL COMPOSITIONS COMPRISING POH DERIVATIVES” (UNIVERSITY OF SOUTHERN CALIFORNIA, priority 2021, published 2024).

Each structure is given as a SMILES string.

In data set [1] the test system is human malignant glioma cells U87, A172 and U251. The data set can be described thus: MTT cytotoxicity assays on U87, A172 and U251 cells (stated jointly). The data set is classed as cell-based. The procedure:
J. of Immunological Methods 65: 55 63, 1983. […] Invasion inhibition may be studied by Boyden chambers.
Then U87, A172 and U251 cells were treated with dimethyl celecoxib bisPOH carbamate (POH-DMC) (e.g., synthesized by the method in Example 1), and the MTT cytotoxicity assays performed (FIG. 2).
Then TMZ-resistant glioma cell lines U87, A172 and U251 cells were treated with temozolomide POH carbamate (POH-TMZ) (e.g., synthesized by the method in Example 3).
For orientation: Tetrazolium dyes change colour on reduction, which living cells bring about.

Data set [2] deals with USC-04 glioma cancer stem cells. The data set can be described thus: MTT cytotoxicity assay, USC-04 glioma cancer stem cells. The format is cell-based. Conditions: USC-04; increasing concentrations (TMZ 0-400 uM; POH 0-2 mM). From the text: (§1) Cancer Lett. 2011 Mar. 28; 302(2):100-8.
Data set [3] deals with TMZ sensitive (U251) cells. The data set can be described thus: Colony forming assay, TMZ sensitive U251 cells. The format is cell-based, human. As to conditions: TMZ sensitive U251 cells. How it is done:
(§2) Colony forming assays were carried out after cells were treated with TMZ alone, POH alone, and the TMZ-POH conjugate. […] Cancer Lett. 2011 Mar. 28; 302(2):100-8.

Data set [4] relates to TMZ resistant (U251TR) U251 cells. The data set can be described thus: Colony forming assay, TMZ resistant U251TR cells. The data set is classed as cell-based, human. The procedure: as §2
Data set [5] concerns USC-02 glioma cancer stem cells. The data set can be described thus: MTT cytotoxicity assay, USC-02 glioma cancer stem cells. The data set is classed as cell-based. Conditions: USC-02; increasing concentrations (TMZ 0-400 uM; POH 0-2 mM).
Text: as §1

The subject of data set [6] is IL-1β. The data set is described as follows: Serum IL-1β following UV exposure. The data set is classed as in vivo, mouse. The procedure: (§3) SKH-1 hairless mice were treated with 10 mg/kg POH-LA conjugate freshly prepared daily. The POH-LA conjugate was formulated in glycerol:ethanol (90:10) while the control animals received the glycerol:ethanol vehicle only or the commercially available sunblock (Well & Good Sun Protection Wipes SPF 15). Additional test groups were treated with POH formulated in the glycerol:ethanol vehicle or linoleic acid formulated in the glycerol:ethanol vehicle. 50 μL of each formulation was placed on a area 1 cm^2 area that was exposed to the UV light. The mice were treated with their respective formulations after exposure to the UV light. In FIG. 22A, the mouse was treated with sunblock. In FIG. 22B, the mouse was treated with POH. In FIG. 22C, the mouse was treated with linoleic acid. In FIG. 22D, the mouse was treated with POH-LA conjugate. In FIG. 22D, the mouse was treated with the glycerol:ethanol vehicle only. The POH-LA conjugate, POH or linoleic acid solutions were gently spread on the skin surface and allowed to air dry. The sunblock mouse was gently wiped on the exposure area with the sunblock towelette. This exposure and treatment went on for a maximum of 10 weeks. Throughout the experimental period the animals were photographed and weighed. At the end of the experimental period the mice were photographed and euthanized, followed by skin and blood collection. Blood was analyzed for markers of inflammation and DNA recovered from the exposed area of the skin and analyzed for markers of DNA damage.
(§4) Furthermore, blood samples were taken from each mouse 4 hours after the last cutaneous treatment. About 0.5 mL of blood was collected by cardiac puncture […]. Serum was aliquoted in Eppendorf tubes and store at −80° C. as preparation for cytokine analyses. […]
(§5) Mice were treated with 10 mg/kg POH-LA conjugate freshly prepared daily. […] Blood was analyzed for markers of inflammation and DNA recovered from the exposed area of the skin and analyzed for markers of DNA damage.

Data set [7] has as its system IL-6. The data set can be described thus: Serum IL-6 following UV exposure. The format is in vivo, mouse. How it is done:
as §3, with “In FIG. 22D, the mouse was treated with the glycerol:ethanol vehicle only.” left out
as §4, §5

In data set [8] the test system is UV-B exposed skin. The data set can be described thus: UV-B induced skin damage in SKH-1 hairless mice. The data set is classed as in vivo, mouse. As to conditions: topical post exposure. The procedure: (§6) FIG. 23 illustrates the simulation of sunlight by irradiation with UVB lamps (310 nm). The irradiation was conducted in a phototoxicity testing chamber and fitted with a UV-B lamp providing with a spectral output of approximately 310 nm. The source of UVR was a short-wavelength UV lamp (VWR. Radnor, PA). The peak spectral output of this lamp was approximately 310 nm, with no energy detectable below 260 nm, approximately 0.6% between 260 and 280 nm (UV-C), 72.7% between 280 and 320 nm (UV-B), and 26.7% between 320 and 400 nm (UV-A). Radiation dosage of UV-B per irradiation was set at 54 mJ/cm^2 for the first week, 72 mJ/cm^2 for the second week, 90 mJ/cm^2 for the third week, and 108 mJ/cm^2 for the remaining weeks, as confirmed by a UV monitor. Each irradiation event was 10 minutes long.
POH-LA conjugate, linoleic acid, POH, and the additive combination of linoleic acid and POH were each suspended in glycerol:ethanol (90:10 vol/vol) to a final concentration of 10 nM with 50 μL and applied to each SKH-1 hairless mouse post UV-B exposure for treatment. The sunblock mouse was gently wiped on the exposure area with the sunblock towelette. […] In FIG. 23B, the mice were treated with the glycerol:ethanol vehicle only. In FIG. 23C, the mice were treated with POH. In FIG. 23D, the mice were treated with linoleic acid. In FIG. 23E, the mice were treated with an mixture of linoleic acid and POH. In FIG. 23F, the mice were treated with POH-LA conjugate. In FIG. 23G, the mice were treated with sunblock. The application of POH-LA conjugate to UV-B exposed tissue limits the amount of observable skin damage as compared to the untreated control (B) or the individual components of POH-LA conjugate either alone (POH—C and LA—D), in mixture (E), or with sunblock (G).
as §6, with “FIGS. 24A-D illustrates the” for “FIG. 23 illustrates the”, “UV lamp (VWR, Radnor, PA).” for “UV lamp (VWR. Radnor, PA).”, “second week, and 90 mJ/cm^2” for “second week, 90 mJ/cm^2”, “third week, as confirmed” for “third week, and 108 mJ/cm^2 for the remaining weeks, as confirmed”, “UV monitor.” for “UV monitor. Each irradiation event was 10 minutes long.”
POH-LA conjugate (FIG. 24A), linoleic acid (FIG. 24B), POH (FIG. 24C), and the additive combination of linoleic acid and POH (FIG. 24D) were each suspended in glycerol:ethanol (90:10 vol/vol) to a final concentration of 10 nM with 50 μL applied to each mouse post UV-B exposure for treatment. The application of POH-LA conjugate to UV-B exposed tissue limits the amount of observable skin damage as compared the individual components of POH-LA conjugate either alone or in mixture.
as §6, with “This example” for “FIG. 23”, “nm)” for “nm). The irradiation”, “(VWR,” for “(VWR.”, “monitor.” for “monitor. Each irradiation event was 10 minutes long.”
POH-LA conjugate, linoleic acid, POH, and the additive combination of linoleic acid and POH were each suspended in glycerol:ethanol (90:10 vol/vol) to a final concentration of 10 nM with 50 μL applied to each mouse post UV-B exposure for treatment. […]

Data set [9] concerns TNF-α. The data set can be described thus: Serum TNF-α following UV exposure. The data set is classed as in vivo, mouse. The procedure:
as §3, §4, §5

The subject of data set [10] is U87 human glioma cells. The data set can be described thus: MTT cytotoxicity assay, U87 cells. The format is cell-based. As to conditions: Homo sapiens, U-87 MG, U-87 cells, 48 hours. The text has this: (§7) In vitro efficacy of the present composition can be determined using methods well known in the art. For example, the cytotoxicity of the present monoterpene (or sesquiterpene) and/or the therapeutic agents may be studied by MTT [3-(4,5-dimethylthiazol-2-yl)-2,5-diphenyl tetrazolium bromide] cytotoxicity assay. MTT assay is based on the principle of uptake of MTT, a tetrazolium salt, by metabolically active cells where it is metabolized into a blue colored formazan product, which can be read spectrometrically. J. of Immunological Methods 65: 55 63, 1983. The cytotoxicity of the present monoterpene (or sesquiterpene) derivative and/or the therapeutic agents may be studied by colony formation assay. Functional assays for inhibition of VEGF secretion and IL-8 secretion may be performed via ELISA. Cell cycle block by the present monoterpene (or sesquiterpene) derivative and/or the therapeutic agents may be studied by standard propidium iodide (PI) staining and flow cytometry. Invasion inhibition may be studied by Boyden chambers. In this assay a layer of reconstituted basement membrane, Matrigel, is coated onto chemotaxis filters and acts as a barrier to the migration of cells in the Boyden chambers. Only cells with invasive capacity can cross the Matrigel barrier. Other assays include, but are not limited to cell viability assays, apoptosis assays, and morphological assays. […]

In data set [11] the test system is U251 human glioma cells. The data set is described as follows: MTT cytotoxicity assay, U251 cells. From the text: (§8) In vitro efficacy of the present composition can be determined using methods well known in the art. For example, the cytotoxicity of the present monoterpene (or sesquiterpene) and/or the therapeutic agents may be studied by MTT [3-(4,5-dimethylthiazol-2-yl)-2,5-diphenyl tetrazolium bromide] cytotoxicity assay. MTT assay is based on the principle of uptake of MTT, a tetrazolium salt, by metabolically active cells where it is metabolized into a blue colored formazan product, which can be read spectrometrically. J. of Immunological Methods 65: 55 63, 1983. The cytotoxicity of the present monoterpene (or sesquiterpene) derivative and/or the therapeutic agents may be studied by colony formation assay. Functional assays for inhibition of VEGF secretion and IL-8 secretion may be performed via ELISA. Cell cycle block by the present monoterpene (or sesquiterpene) derivative and/or the therapeutic agents may be studied by standard propidium iodide (PI) staining and flow cytometry. Invasion inhibition may be studied by Boyden chambers. In this assay a layer of reconstituted basement membrane, Matrigel, is coated onto chemotaxis filters and acts as a barrier to the migration of cells in the Boyden chambers. Only cells with invasive capacity can cross the Matrigel barrier. Other assays include, but are not limited to cell viability assays, apoptosis assays, and morphological assays.
(§9) To compare the cytotoxicity of Rolipram POH Carbamate (POH-Rolipram) (e.g., synthesized by the method in Example 5) with rolipram, […] inducing differentiation and apoptosis in glioma cells, A172, U87, U251 and LN229 human glioma cells were treated with either POH-Rolipram or rolipram for 48 hours.
MTT cytotoxicity assays were carried out after cells were treated with the TMZ-POH conjugate. The MTT cytotoxicity assays were carried out as described in Chen T C, et al. Green tea epigallocatechin gallate enhances therapeutic efficacy of temozolomide in orthotopic mouse glioblastoma models. Cancer Lett. 2011 Mar. 28; 302(2):100-8.

In data set [12] the test system is A172 human glioma cells. The data set can be described thus: MTT cytotoxicity assay, A172 cells. Conditions: Homo sapiens, A-172 cells, 48 hours. The data set is classed as cell-based.
Text: as §7

In data set [13] the test system is LN229 human glioma cells. The data set is described as follows: cells. Conditions: Homo sapiens, LN-229, 48 h.
Text: as §8, §9

On to `C=C(C)C1CC=C(COC(=O)N(C(=O)OCC2=CCC(C(=C)C)CC2)S(=O)(=O)c2ccc(-n3nc(C(F)(F)F)cc3-c3cc(C)ccc3C)cc2)CC1` (stereo not shown) [POH-DMC], for which, in data set [1], the “cytotoxicity / kill rates (MTT)” value is reported as “much better cytotoxicity than DMC alone”.
As for `Cn1nnc2c(C(N)=O)ncn2c1=O` [TMZ, temozolomide], the “cytotoxicity / kill rates (MTT)” value in [1] is “minimal cytotoxicity”. In addition, the “cytotoxicity (MTT)” value in data set [2] and in data set [5] was “did not induce significant cytotoxicity” in each case. In addition, the “cytotoxicity (colony forming assay)” value in data set [3] is on record as “demonstrated cytotoxicity”; in [4] it was “minimal cytotoxicity”.
Take `CCCCC/C=C\C/C=C\CCCCCCCC(=O)O` [linoleic acid]: the “IL-1β serum levels increase” value in data set [6] was 8.3 ± 2.1 pg/mL. Besides, in data set [7], the IL-6 levels was found to be 18.3 ± 3.4 pg/mL. In addition, the observable skin damage result is listed as “displayed damage” in data set [8] (3 weeks of UV-B exposure and treatment); “displayed damage” in [8] (5 weeks of UV-B exposure and treatment). This molecule displayed a TNF-α levels in data set [9] of 126.9 ± 14.6 pg/mL.
Regarding `COc1ccc(C2CNC(=O)C2)cc1OC1CCCC1` (stereo not shown) [rolipram, reference compound], the IC50 (usually the concentration that gives 50% inhibition) in [10] is > 1000 µM; in data set [11] (Homo sapiens, U-251, 48 h) it was 170 µM; in [12] it was ~1000 µM; in [13], > 100 µM. Also, in data set [11], the plateau cytotoxicity was found to be 60%.
